Here are results for 15 compounds from US7223769B2, “Pyrimidine compounds and their use as pesticides” (Sumitomo Chemical Company, Limited, priority 2002, dated 2007).

The test system of the assay is Frankliniella occidentalis (Western flower thrips). In words: Test Example 2: sprayed cucumber leaf, larvae of Frankliniella occidentalis set free, surviving pests counted. Format: in vivo. Conditions: 500 ppm spray solution, 20 ml/cup, cucumber first true leaf, thirty larvae set free, after seven days. The method, then: Ten parts of each of the present compounds (2), (4), (6), (7), (8), (11), (12), (14), (16), (17), (19) to (24), (26), (28), (29), (34), (36) to (38), and (40); white carbon containing 50 parts of polyoxyethylene alkyl ether sulfate ammonium salt; and […] of water were mixed and pulverized by the wet grinding method to give a formulation for each compound. The formulation of each present compound was diluted with water so that the active ingredient concentration came to 500 ppm to prepare a spray solution.
A polyethylene cup was seeded with cucumber and a plant was grown until the first true leaf was developed, to which the above spray solution was applied at a ratio of 20 ml/cup. After the chemical solution sprayed to the cucumber were dried, the first true leaf was cut off and placed on a filter paper (70 mm in diameter) impregnated with water in a polyethylene cup (110 mm in diameter). Thirty larvae of Frankliniella occidentalis (Western flower thrips) were set free on the first true leaf, which was covered with a polyethylene cup. After seven days, the number of surviving pests was examined.
`CC#CCOc1cc(OC(C)C2CC2)ncn1` (stereo not drawn) [present compound (2), 4-(2-butynyloxy)-6-(1-cyclopropylethoxy)pyrimidine]: the “number of surviving pests” value came out at 0.

As to `CC#CCOc1cc(OC(CC)C(C)(C)C)ncn1` (stereo not drawn) [present compound (4), 4-(2-butynyloxy)-6-(1-ethyl-2,2-dimethylpropyloxy)pyrimidine], the “number of surviving pests” value worked out at 0.

Consider `CC#CCOc1cc(OCC(C)(C)C)ncn1` [present compound (6), 4-(2-butynyloxy)-6-(2,2-dimethylpropyloxy)pyrimidine], for which the “number of surviving pests” value was found to be 0.

As for `CC#CCOc1cc(OC(C)CC(C)(C)C)ncn1` (stereo not drawn) [present compound (7), 4-(2-butynyloxy)-6-(1,3,3-trimethylbutyloxy)pyrimidine], the “number of surviving pests” value stood at 0.

`CC#CCOc1cc(OC(C)C2(C)CC2)ncn1` (stereo not drawn) [present compound (8), 4-(2-butynyloxy)-6-[1-(1-methylcyclopropyl)ethyloxy]pyrimidine]: the “number of surviving pests” value was determined as 0.

Take `CC#CCOc1cc(OCCC(C)(C)C)ncn1` [present compound (11), 4-(2-butynyloxy)-6-(3,3-dimethylbutyloxy)pyrimidine]: the “number of surviving pests” value was 0.

For `CC#CCOc1cc(OC(C)C(C)C)ncn1` (stereo not drawn) [present compound (12), 4-(2-butynyloxy)-6-(1,2-dimethylpropyloxy)pyrimidine], the “number of surviving pests” value turned out to be 0.

For `CC#CCOc1cc(OC(C)C(C)(C)F)ncn1` (stereo not drawn) [present compound (14), 4-(2-butynyloxy)-6-(2-fluoro-1,2-dimethylpropyloxy)pyrimidine], the “number of surviving pests” value was 0.

On to `CC#CCOc1cc(OC(C)C(C)CC)ncn1` (stereo not drawn) [present compound (16), 4-(2-butynyloxy)-6-(1,2-dimethylbutyloxy)pyrimidine], for which the “number of surviving pests” value is recorded as 0.

`CCC#CCOc1cc(OC(C)C(C)(C)F)ncn1` (stereo not drawn) [present compound (17), 4-(2-fluoro-1,2-dimethylpropyloxy)-6-(2-pentynyloxy)pyrimidine]: the “number of surviving pests” value was 0.

For the compound `CC#CCOc1cc(OC(C)C2CCCC2)ncn1` (stereo not drawn) [present compound (26), 4-(2-butynyloxy)-6-(1-cyclopentylethyloxy)pyrimidine], the “number of surviving pests” value stood at 0.

With `CC#CCOc1cc(OCC(C)(C)F)ncn1` [present compound (28), 4-(2-butynyloxy)-6-(2-fluoro-2-methylpropyloxy)pyrimidine], the “number of surviving pests” value amounted to 0.

With `CC#CCOc1cc(OC(C)C(Cl)Cl)ncn1` (stereo not drawn) [present compound (29), 4-(2-butynyloxy)-6-(2,2-dichloro-1-methylethyloxy)pyrimidine], the “number of surviving pests” value was determined as 0.

In the case of `CC#CCOc1cc(OC(C)C(C)(C)Cl)ncn1` (stereo not drawn) [present compound (34), 4-(2-butynyloxy)-6-(2-chloro-1,2-dimethylpropyloxy)pyrimidine], the “number of surviving pests” value was 0.

In the case of `CCC#CCOc1cc(OCC(C)(C)Cl)ncn1` [present compound (40), 4-(2-pentynyloxy)-6-(2-chloro-2-methylpropyloxy)pyrimidine], the “number of surviving pests” value amounted to 0.
